According to patent EP0503079A1, “PYRIDAZINONE-SUBSTITUTED ETHYNYLPHENYL DERIVATIVE AND REMEDY FOR CIRCULATORY ORGAN DISEASE CONTAINING THE SAME AS ACTIVE INGREDIENT” (KAKEN PHARMACEUTICAL CO., LTD., priority 1990, dated 1992):

Legend:
Slc-ddy male mice = experiment: Activity on hypoxia induced in decapitation of mice (gasping time); assay type: in vivo; set-up: dose or concentration left out as unconfirmed; conditions: gasping time after decapitation, one hour after oral administration
Description: In each group, 3 Slc-ddy male mice (4 weeks) were employed. Each test compound was suspended or dissolved in a 0.5 % methyl cellulose solution. After the concentration was adjusted, the dose became […], the solution was administered orally. One hour after the administration, mice were decapitated and gasping time was measured.
(§1) Inhibition rate was calculated by the following formula. [formula]

[1] = tested on: Aortae abdominalis of male Wister rats; experiment: Anti-norepinephrine activity on rat abdominal aorta strip preparations (auto-Magnus apparatus); conditions: tension by norepinephrine (10⁻⁷M) regarded as 100
Description: Aortae abdominalis of male Wister rats (8-12 weeks) were delivered and cut in spiral-shape to be strip preparations. Each test compounds was disolved in DMSO. Then, the solution was diluted with distilled water and prepared to be desired concentration. Using an auto-Magnus apparatus, as to the vasoconstriction after adding norepinephrine, contractive forces were measured under the existence of the test compounds.

platelet aggregation = experiment: Inhibitory activity on platelet aggregation (turbidimetry); assay type: cell-based, New Zealand White male rabbits; conditions: for Inhibition rate (%) ADP aggregation: 0.6 µg/mℓ ADP; for Inhibition rate (%) PAF aggregation: 5 x 10⁻⁹M PAF; for Inhibition rate (%) Collagen aggregation: 2 µg/mℓ collagen
Description: Blood was exsanguinated from New Zealand White male rabbits weighing from 2.5 to 3.0 kg and subjected to the test. Each test compound was dissolved in ethanol and prepared to be 1 x 10⁻⁵, 1 x 10⁻⁶ or 1 x 10⁻⁷M respectively. Each aggregation response was measured by turbidimetry. Concentration of aggregating agent was 2 µg/mℓ of collagen, 0.6 µg/mℓ of adenosine 5'-diphosphate (ADP) or 5 x 10⁻⁹M of platelet aggregating factor (PAF).
as §1

Slc: ddy male mice [2] = experiment: Activity on stress ulcers (restraint and water immersion); assay type: in vivo; conditions: length of ulcer in glandular stomach; 30 mg/kg orally; restrained and immersed in water of 23°C for 7 hours
Description: In each group, 5 Slc: ddy male mice (6 weeks) were employed. Each test compound was kneaded with Tween-80 followed by adding a 0.5 % solution of gum arabic to prepare 30 mg/10 mℓ solution (solution containing 1.5 % Tween-80 and 0.5 % gum arabic). Then, the preparation was administered orally in a rate of 30 mg/kg. After the administration, the mice were restrained and immersed in a water tank of 23°C for 7 hours. Then, length of the ulcer in the glandular stomach was measured by a stereoscopic microscope (x 10).

Slc: ddy male mice [3] = experiment: Acute toxicity; assay type: in vivo; conditions: oral administration, death rate after 7 days
Description: (§2) In each group, 6 Slc: ddy male mice weighing 25 to 29 g (6 weeks) were employed. Each compound was administered orally thereto and a value of acute toxicity was evaluated with death rate after 7 days.

Acute toxicity = assay type: in vivo, mice; conditions: mouse, in vivo; oral administration, death rate after 7 days; read-out: LD₅₀
Description: as §2

Row | Molecule | Inhibition rate (%) (Slc-ddy male mice) | Contractive force ([1]; compound 10⁻⁷ M) | Contractive force ([1]; compound 10⁻⁸ M) | Contractive force ([1]; compound 10⁻⁹ M) | Inhibition rate (%) ADP aggregation (platelet aggregation; compound 10⁻⁵ M) [%] | Inhibition rate (%) PAF aggregation (platelet aggregation; compound 10⁻⁵ M) [%] | Inhibition rate (%) ADP aggregation (platelet aggregation; compound 10⁻⁶ M) [%] | Inhibition rate (%) Collagen aggregation (platelet aggregation; compound 10⁻⁶ M) [%] | Inhibition rate (%) ADP aggregation (platelet aggregation; compound 10⁻⁷ M) [%] | Inhibition rate (%) Collagen aggregation (platelet aggregation; compound 10⁻⁷ M) [%] | Inhibition rate (%) (Slc: ddy male mice [2]) | LD₅₀ (Slc: ddy male mice [3]) [mg/kg] | LD50 at 168 h (Acute toxicity) [mg/kg]
1 | 2,6-dimethyl-4-(3-ethynylphenyl)-3-methoxycarbonyl-5-{4-(6-oxo-1,4,5,6-tetrahydropyridazinon-3-yl)phenyl}aminocarbonyl-1,4-dihydropyridine [Compound 1] | 28.6 | 15.7 | 87.4 | 102.8 | 94 | 64 | 70 | 94 | 21 | 21 | 83.0 | 1000 | –
2 | 2,6-dimethyl-4-{3-(3-hydroxy-3-methyl)-1-butyn-1-yl)}phenyl-3-methoxycarbonyl-5-{4-(6-oxo-1,4,5,6-tetrahydropyridazinon-3-yl)phenyl}aminocarbonyl-1,4-dihydropyridine [Compound 7] | 19.1 | 16.3 | 89.2 | 100.3 | 89 | 40 | 73 | 92 | 24 | 25 | 88.8 | 800 | –
3 | 2,6-dimethyl-4-{3-(4-hydroxy-1-butyn-1-yl)}phenyl-3-methoxycarbonyl-5-{4-(6-oxo-1,4,5,6-tetrahydropyridazinon-3-yl)phenyl}aminocarbonyl-1,4-dihydropyridine [Compound 6] | 21.5 | 10.8 | 70.2 | 90.5 | 93 | 69 | 68 | 93 | 22 | 22 | – | 950 | –
4 | C#Cc1cccc(C2C(C(=O)Nc3ccc(C4=NNC(=O)CC4)cc3)=C(C)NC(N)=C2C(=O)OCC)c1 (stereo not shown) [Compound 12, 2-amino-3-ethoxycarbonyl-4-(3-ethynylphenyl)-6-methyl-5-{4-(6-oxo-1,4,5,6-tetrahydropyridazinon-3-yl)phenyl)aminocarbonyl-1,4-dihydropyridine] | 30.2 | 10.3 | 69.4 | 90.2 | 96 | 72 | 81 | 96 | 35 | 33 | 98.7 | – | 1200
5 | CCOC(=O)C1=C(C)NC(C)=C(C(=O)Nc2ccc(C3=NNC(=O)CC3)cc2)C1c1cc(C#CC(C)(C)O)ccc1OC (stereo not shown) [Compound 17, 2,6-dimethyl-4-{3-(3-hydroxy-3-methyl)-1-butyn-1-yl-6-methoxy}phenyl-3-ethoxycarbonyl-5-{4-(6-oxo-1,4,5,6-tetrahydropyridazinon-3-yl)phenyl}aminocarbonyl-1,4-dihydropyridine] | 25.8 | 8.9 | 70.1 | 87.7 | 82 | 49 | 62 | 100 | 18 | 30 | 79.3 | – | 1000
6 | CCOC(=O)C1=C(N)NC(C)=C(C(=O)Nc2ccc(C3=NNC(=O)CC3)cc2)C1c1cccc(C#CC(C)(C)O)c1 (stereo not shown) [Compound 24, 2-amino-4-{3-(3-hydroxy-3-methyl)-1-butyn-1-yl}phenyl-3-ethoxycarbonyl-6-methyl-5-{4-(6-oxo-1,4,5,6-tetrahydropyridazinon-3-yl)phenyl}aminocarbonyl-1,4-dihydropyridine] | 24.2 | 11.1 | 72.4 | 88.8 | 92 | 60 | 70 | 90 | 27 | 29 | – | – | 1100
7 | C#Cc1cccc(C2C(C(=O)Nc3ccc(C4=NNC(=O)CC4CC)cc3)=C(C)NC(N)=C2C(=O)OCCOC)c1 (stereo not shown) [Compound 25, 2-amino-4-(3-ethynylphenyl)-3-methoxyethoxycarbonyl-6-methyl-5-{4-(4-ethyl-6-oxo-1,4,5,6-tetrahydropyridazinon-3-yl)phenyl}aminocarbonyl-1,4-dihydropyridine] | 28.3 | 12.1 | 70.9 | 91.5 | 90 | 62 | 69 | 91 | 29 | 30 | 94.3 | – | 1000
